These results are taken from patent US20050267020A1, “Polypeptides derived from inducible hsp70 and pharmaceutical compositions containing the same” (priority 2001, published 2005).

For test [1], the system named is murine CTL lines mCTL134, mCTL380, mCTL391, mCTL393. Briefly: Murine CTL avidity for peptide, 51Cr release cytotoxic assay. In kind it is cell-based, HHD mice. Conditions: peptide concentration, effector:target ratio 40:1, each CTL line with its respective Hsp70 peptide, read-out: avidity (50% of maximal lysis). The method, then: The four graphs indicate the cell lysis by CTL lines obtained after stimulation with the following peptides, respectively: HSP134 (line mCTL134), HSP380 (line mCTL380), HSP391 (line mCTL391) and HSP393 (line mCTL393). The avidity of the CTLs for their cellular target is determined with a ^51Cr release assay with an effector:target ratio of 40:1. The percentage of lysis of target cells is expressed on the Y axis, as a function of peptide concentration in the medium, which is represented on the X axis. In each graph, the black curve with diamond-shaped points represent cell lysis in presence of HSP peptides, whereas the grey curve with square points represent cell lysis in presence of cognate HSC peptides.
For measuring the avidity of mCTL134 for cells presenting HSP134, the peptide concentration ranges from […]. For mCTL380, mCTL391 and mCTL393, the respective peptide concentration ranges from 1 pM to 1 μM. The different points on each curve correspond, from left to right, to peptide concentrations of 1 pM, 10 pM, 100 pM, 1 nM, 10 nM, 100 nM and 1 μM.
Generation of CTL in HLA-transgenic mice. […]
Cytotoxic assay. […] After incubation, 100 μL of supernatant was collected and radioactivity was measured in a γ-counter. Percentage of specific lysis was determined as: Lysis=(Experimental Release−Spontaneous Release)/(Maximal Release−Spontaneous Release)×100. […]

For test [2], the target named is T1, HLA-A*0201 (Homo sapiens, UniProt P04439, D140Y/D185E/D98H/E176V/E277Q/G131W/G231S/I119V/I121R/I166T/I218V/L300P/L318F/N151K/N90K/P208A/P217A/Q86G/Q94H/R138H/R169H/T345S).
T1 construct: Tap−/− cells expressing the studied HLA-class I molecule; endogenous in cells; host or cells: T2 cells (Tap-/-, HLA-A*0201)
Briefly: Measurement of peptide relative affinity to HLA-A*0201 on T2 cells. In kind it is binding. Conditions: Relative Affinity determination. The method, then: Measurement of Peptide Relative Affinity to HLA class I. Tap−/− cells expressing the studied HLA-class I molecule (3×10^5 cells/mL) were incubated with various concentrations of peptides ranging from 100 μM to 0.1 μM in serum-free RPMI 1640 medium supplemented with 100 ng/ml of human β-2m at 37° C. for 16 hours. Cells were then washed twice and stained with the specific anti-class I mAb followed by FITC conjugated goat anti mouse Ig mAb to quantify the expression of HLA-A*0201. For each peptide concentration, the HLA-specific staining was calculated as the % of the staining obtained with 100 μM of the reference peptide. The relative affinity (RA) is determined as: RA=(Concentration of each peptide that induces 20% of HLA expression/Concentration of the reference peptide that induces 20% of HLA expression). The lower the RA-value, the stronger is the peptide binding to HLA. The mean RA value for each peptide is determined from at least three independent experiments. […]
The affinity of each peptide was assayed experimentally by determination of the Relative Affinity: the necessary peptide dose to stabilise a reference quantity of HLA-A*0201 molecules at the surface of T2 cells; and the stability of each peptide was assayed by determination of the half-life of the peptide/HLA-A*0201 molecule complex (DC50: dissociation complex 50).

As to LMGDKSENV [HSP 380], in test [1], the EC50 is roughly 10 nM.
For YLGYPVTNAV [HSP 134(10)], in test [2], the “affinity for HLA-A*0201 (in words)” value is listed as “strong affinity”.
